Data: publication PMC6295334 (ACS chemical biology, 2017)
Where two headings read alike, the source gives them in different places.

Key:
Alg44 [1] = biological target: T1, Alg44 (Pseudomonas aeruginosa, UniProt Q9HY69); experiment: intact protein LC-MS adduct; type: binding
Alg44 [2] = biological target: T1, Alg44; experiment: intact protein LC-MS adduct; type: binding; remark: listed apart in the source

T1 sequence (Q9HY69 14-122): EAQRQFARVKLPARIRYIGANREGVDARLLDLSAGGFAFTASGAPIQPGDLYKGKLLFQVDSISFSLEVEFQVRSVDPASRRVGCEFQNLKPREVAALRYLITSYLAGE

Molecule | IC50 (Alg44 [1]) [µM] | IC50 (Alg44 [2]) [µM]
CCC1(C)Cc2ccccc2-c2nc3[nH][nH]c(=S)n3c(=O)c21 (centres unmarked) [compound 925] | 58.1 ± 1.2 | 
AC1LFHI9 |  | 63.5 ± 1.3
